Measured values from ChEMBL document CHEMBL1201862, “PubChem BioAssay data set” (2004).
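Assay format: 96-well plates, 48-hour exposure. Abbreviation: GI50, concentration required for 50% inhibition of growth.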 The source made the active and inactive calls. No stated cut-off is given here; in the data, active = GI50 up to about 1.1 µM and inactive = higher.

Tests used:
Experiment in all cases: NCI anticancer screen, dose series, 48 h
NCI-H460 = system: NCI-H460
A498 = system: A498
OVCAR-4 = system: OVCAR-4
UACC-62 = system: UACC-62
CAKI-1 = system: CAKI-1
LOX IMVI = system: LOX IMVI
RPMI-8226 = system: RPMI-8226
U-251 = system: U-251
ACHN = system: ACHN
IGROV-1 = system: IGROV-1
HOP-92 = system: HOP-92
XF498 = system: XF498
UO-31 = system: UO-31
K562 = system: K562
TK-10 = system: TK-10
OVCAR-5 = system: OVCAR-5
DMS-273 = system: DMS-273
HOP-62 = system: HOP-62
RXF 393 = system: RXF 393
786-0 = system: 786-0
MOLT-4 = system: MOLT-4
EKVX = system: EKVX
OVCAR-8 = system: OVCAR-8
SF-268 = system: SF-268
SNB-19 = system: SNB-19
SW-620 = system: SW-620
HCT-15 = system: HCT-15
SK-MEL-5 = system: SK-MEL-5
SK-OV-3 = system: SK-OV-3
Malme-3M = system: Malme-3M
DMS-114 = system: DMS-114
M14 = system: M14
KM12 = system: KM12
OVCAR-3 = system: OVCAR-3
CCRF-CEM = system: CCRF-CEM
SNB-75 = system: SNB-75
SF-539 = system: SF-539
NCI-H522 = system: NCI-H522
SK-MEL-28 = system: SK-MEL-28
SNB-78 = system: SNB-78
LXFL 529 = system: LXFL 529
SF-295 = system: SF-295
SK-MEL-2 = system: SK-MEL-2
A549 = system: A549
SN12C = system: SN12C
COLO 205 = system: COLO 205
NCI-H23 = system: NCI-H23
DLD-1 = system: DLD-1
RXF 631 = system: RXF 631
UACC-257 = system: UACC-257
HL-60 = system: HL-60
HCT-116 = system: HCT-116
NCI-H226 = system: NCI-H226
HCC 2998 = system: HCC 2998
HT-29 = system: HT-29
M19-MEL = system: M19-MEL
SR = system: SR
KM-20L2 = system: KM-20L2
HOP-18 = system: HOP-18

## CCOC(=O)C1C(=O)CC(=O)C2CCCCC21 (stereo not drawn)
NCI-H460
  GI50: > 100 µM (inactive)
A498
  GI50: > 100 µM (inactive)
OVCAR-4
  GI50: > 100 µM (inactive)
UACC-62
  GI50: > 100 µM (inactive)
CAKI-1
  GI50: > 100 µM (inactive)
LOX IMVI
  GI50: > 100 µM (inactive)
RPMI-8226
  GI50: > 100 µM (inactive)
U-251
  GI50: > 100 µM (inactive)
ACHN
  GI50: > 100 µM (inactive)
IGROV-1
  GI50: > 100 µM (inactive)
HOP-92
  GI50: > 100 µM (inactive)
XF498
  GI50: > 100 µM (inactive)
UO-31
  GI50: > 100 µM (inactive)
K562
  GI50: > 100 µM (inactive)
TK-10
  GI50: > 100 µM (inactive)
OVCAR-5
  GI50: > 100 µM (inactive)
DMS-273
  GI50: > 100 µM (inactive)
HOP-62
  GI50: > 100 µM (inactive)
RXF 393
  GI50: > 100 µM (inactive)
786-0
  GI50: > 100 µM (inactive)
MOLT-4
  GI50: > 100 µM (inactive)
EKVX
  GI50: > 100 µM (inactive)
OVCAR-8
  GI50: > 100 µM (inactive)
SF-268
  GI50: > 100 µM (inactive)
SNB-19
  GI50: > 100 µM (inactive)
SW-620
  GI50: > 100 µM (inactive)
HCT-15
  GI50: > 100 µM
SK-MEL-5
  GI50: > 100 µM (inactive)
SK-OV-3
  GI50: > 100 µM (inactive)
Malme-3M
  GI50: > 100 µM (inactive)
DMS-114
  GI50: > 100 µM (inactive)
M14
  GI50: > 100 µM (inactive)
KM12
  GI50: > 100 µM (inactive)
OVCAR-3
  GI50: > 100 µM (inactive)
CCRF-CEM
  GI50: > 100 µM (inactive)
SNB-75
  GI50: > 100 µM (inactive)
SF-539
  GI50: > 100 µM (inactive)
NCI-H522
  GI50: > 100 µM (inactive)
SK-MEL-28
  GI50: > 100 µM (inactive)
SNB-78
  GI50: > 100 µM (inactive)
LXFL 529
  GI50: > 100 µM (inactive)
SF-295
  GI50: > 100 µM (inactive)
SK-MEL-2
  GI50: > 100 µM (inactive)
A549
  GI50: > 100 µM (inactive)
SN12C
  GI50: > 100 µM (inactive)
COLO 205
  GI50: > 100 µM (inactive)
NCI-H23
  GI50: > 100 µM (inactive)
DLD-1
  GI50: > 100 µM (inactive)
RXF 631
  GI50: > 100 µM (inactive)
UACC-257
  GI50: > 100 µM (inactive)
HL-60
  GI50: > 100 µM (inactive)
HCT-116
  GI50: > 100 µM (inactive)

## Cc1cc(Br)cc(C)c1NC(=O)C(=O)C(C(=O)c1ccc(Cl)c(Cl)c1)C1OC(=O)c2ccccc21 (stereo not drawn)
NCI-H460
  GI50: > 100 µM (inactive)
A498
  GI50: 26.3 µM (inactive)
OVCAR-4
  GI50: > 100 µM (inactive)
UACC-62
  GI50: 59.8 µM (inactive)
CAKI-1
  GI50: 34.8 µM (inactive)
LOX IMVI
  GI50: > 100 µM (inactive)
RPMI-8226
  GI50: 42.2 µM (inactive)
U-251
  GI50: 44.6 µM (inactive)
ACHN
  GI50: 28.5 µM (inactive)
IGROV-1
  GI50: 91.2 µM (inactive)
NCI-H226
  GI50: 72.6 µM (inactive)
HCC 2998
  GI50: > 100 µM (inactive)
UO-31
  GI50: 26.2 µM (inactive)
K562
  GI50: 28.2 µM (inactive)
TK-10
  GI50: 70.8 µM (inactive)
OVCAR-5
  GI50: 21.7 µM (inactive)
DMS-273
  GI50: 63.2 µM (inactive)
HOP-62
  GI50: 43.6 µM (inactive)
HT-29
  GI50: 29.9 µM (inactive)
RXF 393
  GI50: > 100 µM (inactive)
786-0
  GI50: 86.1 µM (inactive)
MOLT-4
  GI50: 12.6 µM (inactive)
EKVX
  GI50: 4.19 µM (inactive)
OVCAR-8
  GI50: > 100 µM (inactive)
SF-268
  GI50: 39.8 µM (inactive)
SNB-19
  GI50: 82 µM (inactive)
SW-620
  GI50: > 100 µM (inactive)
M19-MEL
  GI50: 75.2 µM (inactive)
HCT-15
  GI50: 50.2 µM
SR
  GI50: 7.71 µM (inactive)
SK-OV-3
  GI50: 49.5 µM (inactive)
Malme-3M
  GI50: > 100 µM (inactive)
DMS-114
  GI50: 24.3 µM (inactive)
M14
  GI50: > 100 µM (inactive)
KM12
  GI50: 36.8 µM (inactive)
OVCAR-3
  GI50: 37.1 µM (inactive)
CCRF-CEM
  GI50: 35.2 µM (inactive)
SF-539
  GI50: 25.2 µM (inactive)
NCI-H522
  GI50: 36.5 µM (inactive)
SNB-78
  GI50: 53.3 µM (inactive)
KM-20L2
  GI50: 34.6 µM (inactive)
LXFL 529
  GI50: 59.3 µM (inactive)
SF-295
  GI50: 90.6 µM (inactive)
SK-MEL-2
  GI50: > 100 µM (inactive)
A549
  GI50: 74.3 µM (inactive)
SN12C
  GI50: 79.3 µM (inactive)
COLO 205
  GI50: 47.5 µM (inactive)
NCI-H23
  GI50: 95.7 µM (inactive)
DLD-1
  GI50: 12.4 µM (inactive)
RXF 631
  GI50: 29.6 µM (inactive)
UACC-257
  GI50: 36.7 µM (inactive)
HL-60
  GI50: 24.5 µM (inactive)
HCT-116
  GI50: 48.4 µM (inactive)

## Cn1ncc2c(=O)[nH]c(-c3ccccc3)nc21
OVCAR-4
  GI50: > 100 µM (inactive)
UACC-62
  GI50: > 100 µM (inactive)
CAKI-1
  GI50: > 100 µM (inactive)
LOX IMVI
  GI50: > 100 µM (inactive)
RPMI-8226
  GI50: > 100 µM (inactive)
U-251
  GI50: > 100 µM (inactive)
ACHN
  GI50: > 100 µM (inactive)
IGROV-1
  GI50: > 100 µM (inactive)
HCC 2998
  GI50: > 100 µM (inactive)
XF498
  GI50: > 100 µM (inactive)
UO-31
  GI50: > 100 µM (inactive)
K562
  GI50: > 100 µM (inactive)
TK-10
  GI50: > 100 µM (inactive)
OVCAR-5
  GI50: > 100 µM (inactive)
DMS-273
  GI50: > 100 µM (inactive)
HT-29
  GI50: > 100 µM (inactive)
RXF 393
  GI50: > 100 µM (inactive)
HOP-18
  GI50: < 0.01 µM (active)
MOLT-4
  GI50: > 100 µM (inactive)
EKVX
  GI50: > 100 µM (inactive)
OVCAR-8
  GI50: > 100 µM (inactive)
SF-268
  GI50: > 100 µM (inactive)
SNB-19
  GI50: > 100 µM (inactive)
SW-620
  GI50: > 100 µM (inactive)
HCT-15
  GI50: > 100 µM
SK-MEL-5
  GI50: > 100 µM (inactive)
SK-OV-3
  GI50: > 100 µM (inactive)
Malme-3M
  GI50: > 100 µM (inactive)
DMS-114
  GI50: > 100 µM (inactive)
M14
  GI50: > 100 µM (inactive)
KM12
  GI50: > 100 µM (inactive)
CCRF-CEM
  GI50: > 100 µM (inactive)
SNB-75
  GI50: > 100 µM (inactive)
SF-539
  GI50: > 100 µM (inactive)
NCI-H522
  GI50: > 100 µM (inactive)
SK-MEL-28
  GI50: > 100 µM (inactive)
SNB-78
  GI50: > 100 µM (inactive)
KM-20L2
  GI50: > 100 µM (inactive)
SF-295
  GI50: > 100 µM (inactive)
SK-MEL-2
  GI50: > 100 µM (inactive)
A549
  GI50: > 100 µM (inactive)
SN12C
  GI50: > 100 µM (inactive)
COLO 205
  GI50: > 100 µM (inactive)
NCI-H23
  GI50: > 100 µM (inactive)
DLD-1
  GI50: > 100 µM (inactive)
RXF 631
  GI50: > 100 µM (inactive)
UACC-257
  GI50: > 100 µM (inactive)
HL-60
  GI50: > 100 µM (inactive)
